How the values were obtained:
SH-SY-5Y cells = test: HPLC of homocysteine in SH-SY-5Y cell lysates and medium; format: cell-based, human
Description: Glutathione levels were quantified in homogenates of SH-SY-5Y cells. Cultures were rinsed twice with Tris-buffered saline (TBS), scraped from the plate in a small volume of TBS and homogenized on ice. Medium was also utilized for analysis of HCY along with cellular lysates, since HCY is normally exported from cells. Homogenates (100 μl) were reduced by mixing with 50 μl of 100 μM N-acetylcysteine or with 30 μl of 30 μM cystamine (as an internal standard) and 10 μl of tri-carboxyethylphosphine (100 mg/ml in 0.05 M HCl). Samples were vortexed, incubated at room temperature for 30 minutes, then centrifuged at 10,000×g for 10 minutes. 80 μl of the resulting supernatant were combined with 160 μl of 2 M boric acid/4 mM EDTA (pH 10.5), followed by 80 μl of 1.0 mg/ml SBDF [7-fluorobenzo-2-oxa-1,3-diazole-4-sulfonate] in boric acid/EDTA buffer). Samples were mixed, incubated for 60 minutes at 60° C., equilibrated to reach temperature, and 50 μl of the sample was then injected into a Hewlett Packard model 1090 HPLC, which is used with a 1046A fluorescence detector and a Hewlett Packard 4.6×60 mm high-speed analytical column packed with 3 μM ODs (C18) Hypersil silica. The mobile phase consisted of methanol/0.2 M acetate buffer pH 4.0 (2/98 by volume). Glutathione concentrations were then determined by comparison of peak area ratios of glutathione to the internal standard N-acetylcysteine in the sample compared to peak areas obtained for a glutathione standard curve. Samples were derived from 3-4 normal and 3-4 ApoE−/− mice for each dietary condition, from ≧2 independent experiments (total n≧6 for each diet for both experiments).
Medium was then decanted, cells were scraped from the plate and homogenized, and medium and cellular lysates, along with an aliquot of fresh medium that had not been in contact with cells, were subjected to HPLC analyses.

[1] = system: differentiated SH-SY-5Y cells; test: Externalized phosphatidylserine (meracyanine fluorescence) as index of apoptosis in SH-SY-5Y cells; format: cell-based, human
Description: Levels of externalized phosphatidylserine (PS) were used as a measure of apoptosis (Rimon et al., 1997, J. Neurosci. Res., 48:563-570). Briefly, cultures were subjected to treatments then rinsed with PBS and incubated with 10 μl/ml merocyanine (Upstate Biotech, Lake Placid, N.Y.), followed by examination under rhodamine optics (Ekinci et al, 1999, J. Biol. Chem., 274:30322-30327).
The question of whether folate deficiency is associated with apoptosis was investigated. […] Overall detachment, a further sign of cell death, was evident by the seventh day in the serum-deprived cultures. The detachment phenomenon precluded longer experiments.
The effect of ALCAR on differentiated SH-SY-5Y cells treated with Abeta was examined. Cells were cultured in 20 μM Abeta in the presence and absence of ALCAR. Some cultures were pretreated with 50 μM ALCAR for 30 minutes. In these experiments, the ALCAR-containing medium was replaced with medium containing Abeta and no ALCAR then incubated for two hours before being assayed. Cultures were assayed for ROS, apoptosis, and ATP.

cortical neurons = test: Intracellular ROS by DCFD fluorescence in cortical neurons; format: cell-based, mice; details: folate deprivation for two hours
Description: Intracellular reactive oxygen species (ROS) were monitored as described in […] et al., 1999 (J. Biol. Chem., 274:30322-30327). Briefly, cells were incubated for 30 minutes with dichloro-fluorescein diacetate (DCFD; acetoxymethyl ester; Molecular Probes, Inc., Eugene, Oreg.), which is used to detect intracellular peroxide levels. Incubation was followed by rinsing of cultures in serum-free medium and immediate capture of images using UV optics. Images were captured under epifluorescent and phase-contrast illumination using a DAGE CCL-72 cooled CCD camera via a Scion LG-3 frame grabber operated by NIH Image (see the Internet at rsb.info.nih.gov/nih-image). Images were then stored as PICT files on a Macintosh Power PC 7100AV for subsequent analysis. At least 100 cells in randomly-selected fields from duplicate cultures derived from multiple experiments were scored for fluorescent intensity using NIH Image analysis software. Representative background areas devoid of cells were similarly analyzed and subtracted from cell values to yield net densitometric values. All fields for each individual assay were illuminated, captured, and processed under identical settings. Corresponding phase-contrast images were obtained. Cell aggregates were excluded from the assays; only individual cells were quantified. Values were exported to Excel for statistical analyses using Student's t test. […]

For `Nc1nc2ncc(CNc3ccc(C(=O)N[C@@H](CCC(=O)O)C(=O)O)cc3)nc2c(=O)[nH]1` [folate, folic acid], the “homocysteine levels within cell lysates” value (SH-SY-5Y cells; both before and after folate deprivation) was less than 1 nM, the “homocysteine levels in medium” value (SH-SY-5Y cells; cells cultured two hours in the absence of folate) was “approximately 300 nM” and the “homocysteine levels in medium” value (SH-SY-5Y cells; cells cultured two hours in the presence of folate) was “about 30 nM”. The “meracyanine fluorescence (externalized PS) Mean ± SEM” value ([1]; +folate, Day 1, without serum) was 34.0 ± 1.2 arbitrary fluorescent units, the “meracyanine fluorescence (externalized PS) Mean ± SEM” value ([1]; +folate, Day 3, without serum) was 40.9 ± 2.0 arbitrary fluorescent units and the “meracyanine fluorescence (externalized PS) Mean ± SEM” value ([1]; +folate, Day 5, without serum) was 63.7 ± 3.6 arbitrary fluorescent units. The “meracyanine fluorescence (externalized PS) Mean ± SEM” value ([1]; −folate, Day 1, without serum) was 31.2 ± 1.4 arbitrary fluorescent units, the “meracyanine fluorescence (externalized PS) Mean ± SEM” value ([1]; −folate, Day 3, without serum) was 44.1 ± 4.1 arbitrary fluorescent units and the “meracyanine fluorescence (externalized PS) Mean ± SEM” value ([1]; −folate, Day 5, without serum) was 112.7 ± 5.7 arbitrary fluorescent units. The ROS (cortical neurons) was “increased reactive oxygen species (ROS)”.
